# Experimental data as given in US9144248B2, “Cinnamamides as savory flavorings” (SYMRISE AG, priority 2011, dated 2015).
# “Also recorded” adds a separate entry of the source.
# Experiments:
# Assay type in all cases: in vivo, human
# [1] = Profiling of cinnamides in American beef extract base together with monosodium glutamate (enhancing effect), trained panel, descriptors scored 0-9; conditions: for enhancement of the monosodium glutamate effect: sample (iv) versus sample (ii) base + 0.05% MSG, FIG. 3: 20 ppm + 0.0025% monosodium glutamate in beef extract base
# Procedure: An American beef extract as the base, a corresponding sauce mixed with monosodium glutamate, a corresponding sauce mixed with the cinnamide and a corresponding base mixed with monosodium glutamate were in each case administered blind individually to 15-25 trained panelists for profiling. Using the descriptors previously decided upon by discussion (mouth-fill, salty, metallic, meaty, bitter, mouth-watering, barbecued-roasted, sweet, sour, lingering) the strength of these was assessed on a scale of 0 (imperceptible) through 9 (very strong). The individual results of the panelists were averaged. […]
# Here again (i) a beef extract as the base is compared with (ii) such a base with the addition of 0.05% monosodium glutamate, (iii) such a base with the addition of 0.0025% monosodium glutamate and (iv) such a base with the addition of 0.0025% monosodium glutamate and 5 ppm rubescenamine (3). […]
# The test subjects assessed the strength of the stated flavors by giving a score on a scale of 0 (imperceptible) through 9 (very strong corresponding taste). The mean values of the respective scorings are shown. […]
# [2] = Profiling of cinnamides in a complex base (American beef extract) by 15-25 trained panelists, descriptors scored 0-9, compared with MSG; conditions: for umami taste character compared with monosodium glutamate: comparison base + 0.05 wt. % MSG
# Procedure: An American beef extract as the base, a corresponding base mixed with monosodium glutamate and a corresponding base mixed with the cinnamide were in each case administered blind individually to 15-25 trained panelists for profiling. Using the descriptors previously decided upon by discussion (mouth-fill, salty, metallic, meaty, bitter, mouth-watering, barbecued-roasted, sweet, sour, lingering) the strength of these was assessed on a scale of 0 (imperceptible) through 9 (very strong). The individual results of the panelists were averaged.
# In the spider chart attached as FIG. 1 the profile of an American beef extract as the base (i) is compared with such a base with the addition of 10 ppm (iii) or 50 ppm rubemamine ([…]) (iv) and with a sample (ii) of such a base with the addition of 0.05 wt. % MSG (monosodium glutamate).
# In the spider chart attached as FIG. 2 the profile of an American beef extract as the base (i) is compared with such a base with the addition of 5 ppm (iii) or 10 ppm rubescenamine (compound (3)) (iv) and with a sample (ii) of such a base with the addition of 0.05 wt. % MSG (monosodium glutamate).
# The taste of a 0.5% American beef extract as base (i) was compared in a tasting by a panel of trained test subjects with the taste of such a base with 10 ppm (iii) or 50 ppm (iv) rubemamine (1) added, and such a base with 0.05 wt. % MSG added (ii).
# The test subjects assessed the strength of the stated flavors by giving a score on a scale of 0 (imperceptible) through 9 (very strong corresponding taste). The mean values of the respective scorings are shown.
# The taste of a 0.5% American beef extract as base (i) was compared in a tasting by a panel of trained test subjects with the taste of such a base with 5 ppm (iii) or 10 ppm (iv) rubescenamine (3) added, and such a base with 0.05 wt. % MSG added (ii).
# [3] = Simple profiling of cinnamides dissolved in water, tasting by a group of experts with open discussion
# Procedure: The compounds were dissolved in water in the stated concentration and assessed by a group of experts by tasting with open discussion.
# [4] = 5 ppm + 0.0025% monosodium glutamate in beef extract base, listed as rubescenamine (3)
smiles,measurement,setting,value
"COc1ccc(/C=C/C(=O)NCCc2ccc(OC)c(OC)c2)cc1OC [Compound (1), rubemamine]","enhancement of the monosodium glutamate effect: sample (iv) versus sample (ii) base + 0.05% MSG, FIG. 3",[1],hardly distinguishable from one another other than a slightly lower sweetness
same,"enhancement of the monosodium glutamate effect: sample (iv) versus sample (ii) base + 0.05% MSG, FIG. 3",[1]; listed as rubemamine (1),virtually indistinguishable
same,umami taste character compared with monosodium glutamate,[2]; 10 mg/kg test concentration in American beef extract base,umami taste that is very similar to that of monosodium glutamate
same,Taste profile (concentration in mg/kg),[3]; 10 mg/kg,Umami (10 mg/kg)
"COc1ccc(/C=C/C(=O)NCCc2ccc3c(c2)OCO3)cc1OC [Compound (3), rubescenamine]","enhancement of the monosodium glutamate effect: sample (iv) versus sample (iii) base + 0.0025% MSG, FIG. 4",[1]; 5 ppm + 0.0025% monosodium glutamate in beef extract base,in respect of virtually all parameters was assessed as stronger than sample (iii)
same,"""salty"" parameter: sample (iv) versus sample (ii) base + 0.05% MSG, FIG. 4",[1]; [4],assessed similarly to sample (ii)
same,"enhancement of the monosodium glutamate effect: sample (iv) versus sample (iii) base + 0.0025% MSG, FIG. 4",[1]; [4],assessed more strongly on virtually all parameters than sample (iii)
same,umami taste character compared with monosodium glutamate,[2]; 5 mg/kg test concentration in American beef extract base,umami taste that is very similar to that of monosodium glutamate
same,"taste profile, strength of descriptors (scale 0-9), FIG. 2 curve iii",[2]; 5 ppm in American beef extract base,strong effect
same,"taste profile, strength of descriptors (scale 0-9), FIG. 2 curve iv, versus sample (ii) base + 0.05 wt. % MSG",[2]; 10 ppm in American beef extract base,for most descriptors is able to achieve a similarly strong assessment to sample (ii)
same,Taste profile (concentration in mg/kg),[3]; 10 mg/kg,"Umami, otherwise neutral (10 mg/kg)"
"O=C(/C=C/c1ccccc1)NCCc1ccc2c(c1)OCO2 [Compound (9), zanthomamine]","enhancement of the monosodium glutamate effect: sample (iv) versus sample (iii) base + 0.0025% MSG, FIG. 5",[1]; 50 ppm + 0.0025% monosodium glutamate in beef extract base,assessed more strongly on virtually all parameters than sample (iii)
same,Taste profile (concentration in mg/kg),[3]; 50 mg/kg,Somewhat delayed onset of umami effect (50 mg/kg)
"N[C@@H](CCC(=O)O)C(=O)[O-].[Na+] [monosodium glutamate, reference compound]","taste profile of sample (iii) versus base (i) without addition, FIG. 3",[1]; 0.0025% monosodium glutamate alone in beef extract base,perceived as less strong than the sample (i) without the addition; also recorded: perceived only slightly less strongly than sample (i) without the addition
